Data: patent US5219870A, “Omeprazole compositions designed for administration in rectum” (priority 1990, dated 1993)
Several values for one entry are separate records, joined by “and”; a condition that tells them apart may be missing. Equal entries are not always repeated. Where two headings read alike, the source gives them in different places.

Experiments:
[1] = OMP Stability Based Upon Kinds of Stabilizer (colour change under severe condition); format: physicochemical; details: Reference 2 result in words
From the text: As shown in the following table 2, PEG 4000 and Witepsol H-15 were used as bases for the manufacture of said composition; as a basic amino acid, arginine was used. The stability of said manufactured compositions was observed under a severe condition. As a diffusing medium, micro crystalline cellulose (brandname: Avicel) was used, while using sodium laurylsulfate as a releasing agent.

[2] = OMP Stability Based Upon Kinds of Base (colour change at room temperature); details: Reference 1 result in words
[3] = cited from earlier work
[4] = Animal Experiment: serum concentration and bioavailability of OMP in rabbits (I.V., oral, rectum); format: in vivo, albino rabbits; details: 10 mg/kg; for bioavailability: BA (bioavailability)
Procedure: Using the same method as in Reference 1, one composition using water-Soluble base was manufactured by the following formula; 20 mg OMP. 10 mg arginine and 970 mg PEG 4000, and another composition using lipid-soluble base was manufactured by the following formula; 20 mg OMP, 10 mg arginine and 970 mg Witepsol H-15.
Object: 36 male healthy albino rabbits weighing 1.5-2.3 kg.
Method: before fasting, feed and water were freely provided for eating and rabbits were confined to a wire-box while giving them feed in a constant condition for 4 days. After that, their fasting was made for 48 hours (during the fasting, the rabbits could freely drink 10% dextrose solution.)
For comparison test, 4 mg/ml I.V. solution was manufactured in advance by mixing 400 mg OMP, 20 ml polyethylene glycol 4000, and 80 ml buffer solution of 0.1 mol sodium bicarbonate. 5 ml solution per rabbit was administered to its ear's vein.
Then, through the esophagus of rabbit, Levine tube in diameter of 5 mm was inserted by 30 cm for administering oral OMP capsules wrapped in paraffin film. To reduce friction, vaseline was applied around the surface of the tube and through a syringe connected to the opposite end of the tube, 30 ml water was injected and, by the water pressure, paraffin film was broken to administer the capsule into intestine.
As the feces of the rabbit were not completely removable even in 48-hour fasting, Levine tube having a thickness of 5 mm was used to thrust feces up to the upper part of rectum by 15 cm for the separate of administration of said two kinds of compositions. Then, inserted into the anus, was a cotton wrapped in vinyl tape having a length of 2 cm, fixed it with a clip so as to prevent any leaking of drug solution.
By using xylene, the venous blood vessel of rabbit's ear was extended to collect some venous blood with a heparinized 3 cc syringe. Said syringe was already treated by soaking its wall with 1000 I.U. heparin. Then, 3 cc of said collected blood sample (10,000 rpm, 10 secs) was centrigued to obtain 1 ml plasma.
Add 1 ml of said plasma sample to […] intra-standard solution, 3 ml dichloromethane, 3 ml hexaine and 2 ml of 0.1 mol sodium bicarbonate buffer solution. Then, after agitation for 30 secs, centrifuge this mixture in 2000 rpm for 5 mins to separate into organic layer (upper layer) and plasma layer (lower layer).
Put the centrifuged test tube into ice-contained methanol to freeze the plasma layer. Thereafter, take 5 ml organic solvent from the said solution and, under reduced pressure, evaporate the organic solvent by nitrogen gas. Then add 300 μl mobile phase into the residue and after agitation for 30 secs again, centrifuge the mixture in 2000 rpm for 2 mins and conduct the assay by the HPLC analysis (injected 50 μl) through the comparison of height ratio with standard solution.
Cmax is a peak serum concentration;
AUC is an area under the curve describing serum concentration-time; and […]

[5] = rabbit, in vivo, po, serum concentration

SMILES: N=C(N)NCCC[C@H](N)C(=O)O [arginine]
- stabilizing effect [1]: better stabilizing effect than sodium phosphate
- stability / contribution to stabilization [2]: stability was more increased

SMILES: COc1ccc2[nH]c([S+]([O-])Cc3ncc(C)c(OC)c3C)nc2c1 (centres unmarked) [OMP, Omeprazole]
- half life ([3]; neutral pH): about 14 hrs
- decomposition ([3]; pH less than 4.0): rapid decomposition
- stability ([3]; pH more than 7.0): very stable
- serum concentration ([4]; I.V., 20 mg OMP per 2 kg, 1 min, individual animals): 110.0 µg/mL and 100.0 µg/mL and 91.5 µg/mL and 99.0 µg/mL
- serum concentration ([4]; I.V., 20 mg OMP per 2 kg, 5 min, individual animals): 47.8 µg/mL and 63.3 µg/mL and 58.7 µg/mL and 56.5 µg/mL
- serum concentration ([4]; I.V., 20 mg OMP per 2 kg, 15 min, individual animals): 23.8 µg/mL and 36.8 µg/mL and 24.5 µg/mL
- serum concentration ([4]; I.V., 20 mg OMP per 2 kg, 30 min, individual animals): 21.0 µg/mL and 16.7 µg/mL and 16.2 µg/mL
- serum concentration ([4]; I.V., 20 mg OMP per 2 kg, 60 min, individual animals): 9.1 µg/mL and 11.7 µg/mL and 6.5 µg/mL
- serum concentration ([4]; I.V., 20 mg OMP per 2 kg, 120 min, individual animals): 4.6 μg/ml and 4.2 μg/ml and 4.4 μg/ml (2×)
- serum concentration ([4]; I.V., 20 mg OMP per 2 kg, 180 min, individual animals): 2.2 µg/mL and 2.1 µg/mL and 2.0 µg/mL
- serum concentration ([4]; oral, 20 mg OMP per 2 kg, 1 hr, individual animals, 60 min): 0.300 µg/mL and 0.492 µg/mL and 0.270 µg/mL and 0.295 µg/mL
- serum concentration ([4]; oral, 20 mg OMP per 2 kg, 4 hr, individual animals, 240 min): 0.375 µg/mL and 0.376 µg/mL
- serum concentration ([4]; oral, 20 mg OMP per 2 kg, 5 hr, individual animals, 300 min): 0.432 µg/mL
- serum concentration ([4]; oral, 20 mg OMP per 2 kg, 7 hr, individual animals, 420 min): 0.450 µg/mL and 0.409 µg/mL and 0.506 µg/mL and 0.400 µg/mL
- serum concentration ([4]; oral, 20 mg OMP per 2 kg, 9 hr, individual animals, 540 min): 0.360 µg/mL and 0.373 µg/mL and 0.365 µg/mL
- serum concentration ([4]; oral, 20 mg OMP per 2 kg, 11 hr, individual animals, 660 min): 0.038 µg/mL and 0.070 µg/mL and 0.171 µg/mL and 0.176 µg/mL and 0.053 µg/mL
- Tmax ([4]; oral, 20 mg OMP per 2 kg, individual animals): 5 h
- AUC ([4]; rabbit, in vivo, iv): 33200 ng·h/mL
- AUC ([4]; rabbit, in vivo, iv, average): 35200 ng·h/mL
- concentration at 0.25 h ([4]; rabbit, in vivo, iv, serum concentration): 16400 ng/mL
- serum concentration ([4]; rabbit, in vivo, po, 4 h): 0.531 µg/mL
- AUC ([4]; rabbit, in vivo, po): 6070 ng·h/mL
- AUC ([4]; rabbit, in vivo, po, average): 5980 ng·h/mL
- bioavailability ([4]; rabbit, in vivo, po): 17.2%
- bioavailability ([4]; rabbit, in vivo, po, average): 17%
- Cmax ([4]; rabbit, in vivo, po): 591 ng/mL
- Cmax ([4]; rabbit, in vivo, po, average): 598 ng/mL
- concentration at 4 h [4, 5]: 591 ng/mL
- concentration at 5 h [4, 5]: 527 ng/mL
- concentration at 9 h [4, 5]: 356 ng/mL
- concentration at 1 min ([4]; rabbit, serum, iv, I.V., 20 mg OMP per 2 kg, 1 min, average, read-out: serum concentration, average): 101000 ng/mL
- concentration at 1 min ([4]; rabbit, serum, iv, I.V., 20 mg OMP per 2 kg, 1 min, individual animals, read-out: serum concentration): 104000 ng/mL
- concentration at 5 min ([4]; rabbit, serum, iv, I.V., 20 mg OMP per 2 kg, 5 min, average, read-out: serum concentration, average): 54400 ng/mL
- concentration at 5 min ([4]; rabbit, serum, iv, I.V., 20 mg OMP per 2 kg, 5 min, individual animals, read-out: serum concentration): 45900 ng/mL
- concentration at 0.25 h ([4]; rabbit, serum, iv, I.V., 20 mg OMP per 2 kg, 15 min, average, read-out: serum concentration, average): 25600 ng/mL
- concentration at 0.25 h ([4]; rabbit, serum, iv, I.V., 20 mg OMP per 2 kg, 15 min, individual animals, read-out: serum concentration): 26400 ng/mL
- concentration at 0.5 h ([4]; rabbit, serum, iv, I.V., 20 mg OMP per 2 kg, 30 min, average, read-out: serum concentration, average): 16700 ng/mL
- concentration at 0.5 h ([4]; rabbit, serum, iv, I.V., 20 mg OMP per 2 kg, 30 min, individual animals, read-out: serum concentration): 12800 ng/mL
- concentration at 1 h ([4]; rabbit, serum, iv, I.V., 20 mg OMP per 2 kg, 60 min, average, read-out: serum concentration, average): 8800 ng/mL
- concentration at 1 h ([4]; rabbit, serum, iv, I.V., 20 mg OMP per 2 kg, 60 min, individual animals, read-out: serum concentration): 7800 ng/mL
- concentration at 2 h ([4]; rabbit, serum, iv, I.V., 20 mg OMP per 2 kg, 120 min, average, read-out: serum concentration, average): 4700 ng/mL
- concentration at 2 h ([4]; rabbit, serum, iv, I.V., 20 mg OMP per 2 kg, 120 min, individual animals, read-out: serum concentration): 5800 ng/mL
- concentration at 3 h ([4]; rabbit, serum, iv, I.V., 20 mg OMP per 2 kg, 180 min, average, read-out: serum concentration, average): 2100 ng/mL
- concentration at 3 h ([4]; rabbit, serum, iv, I.V., 20 mg OMP per 2 kg, 180 min, individual animals, read-out: serum concentration): 2000 ng/mL
- concentration at 11 h ([4]; rabbit, serum, po, 20 mg OMP per 2 kg, 11 hr, average): 102 ng/mL
- concentration at 1 h ([4]; rabbit, serum, po, oral, 20 mg OMP per 2 kg, 1 hr, average, read-out: serum concentration, average): 330 ng/mL
- concentration at 1 h ([4]; rabbit, serum, po, oral, 20 mg OMP per 2 kg, 1 hr, individual animals, read-out: serum concentration): 293 ng/mL
- concentration at 2 h ([4]; rabbit, serum, po, oral, 20 mg OMP per 2 kg, 2 hr, average, read-out: serum concentration, average): 455 ng/mL
- concentration at 2 h ([4]; rabbit, serum, po, oral, 20 mg OMP per 2 kg, 2 hr, individual animals, read-out: serum concentration): 369 ng/mL
- concentration at 3 h ([4]; rabbit, serum, po, oral, 20 mg OMP per 2 kg, 3 hr, average, read-out: serum concentration, average): 413 ng/mL
- concentration at 3 h ([4]; rabbit, serum, po, oral, 20 mg OMP per 2 kg, 3 hr, individual animals, read-out: serum concentration): 425 ng/mL
- concentration at 4 h ([4]; rabbit, serum, po, oral, 20 mg OMP per 2 kg, 4 hr, average, read-out: serum concentration, average): 477 ng/mL
- concentration at 4 h ([4]; rabbit, serum, po, oral, 20 mg OMP per 2 kg, 4 hr, individual animals, read-out: serum concentration): 410 ng/mL
- concentration at 5 h ([4]; rabbit, serum, po, oral, 20 mg OMP per 2 kg, 5 hr, average, read-out: serum concentration, average): 550 ng/mL
- concentration at 5 h ([4]; rabbit, serum, po, oral, 20 mg OMP per 2 kg, 5 hr, individual animals, read-out: serum concentration): 447 ng/mL
- concentration at 7 h ([4]; rabbit, serum, po, oral, 20 mg OMP per 2 kg, 7 hr, average, read-out: serum concentration, average): 457 ng/mL
- concentration at 7 h ([4]; rabbit, serum, po, oral, 20 mg OMP per 2 kg, 7 hr, individual animals, read-out: serum concentration): 521 ng/mL
- concentration at 9 h ([4]; rabbit, serum, po, oral, 20 mg OMP per 2 kg, 9 hr, average, read-out: serum concentration, average): 357 ng/mL
- concentration at 9 h ([4]; rabbit, serum, po, oral, 20 mg OMP per 2 kg, 9 hr, individual animals, read-out: serum concentration): 341 ng/mL
- Tmax ([4]; rabbit, serum, po, oral, 20 mg OMP per 2 kg, individual animals, read-out: Tmax): 4 h
